Measurements taken from patent US11434258B2, “Compounds (immunorhelins)” (ISR IMMUNE SYSTEM REGULATION HOLDING AB (PUBL), priority 2017, dated 2022).
Non-standard residues stand in square brackets, D forms with d. Residues, ends and D or L forms follow the SMILES beside them. *: point of attachment. dHis(τ-Bn) = N[C@H](Cc1cn(Cc2ccccc2)cn1)C(=O)O; d2Nal = N[C@H](Cc1ccc2ccccc2c1)C(=O)O; pGlu = O=C1CC[C@@H](C(=O)O)N1; tBu = CC(C)(C)*

What was measured:
GnRHR = target: T1, GnRHR (Homo sapiens, UniProt P30968); experiment: Calcium assay in CHO-K1 cells (Genscript), FLIPR; type: cell-based; settings: CHO-K1/GnRHR/Ga15 cells, relative to agonist control, read-out: GNRHR Stimulation at 1 μM
T1 construct: host or cells: CHO-K1 (CHO-K1/GnRHR/Ga15)
T1 sequence (P30968 1-328): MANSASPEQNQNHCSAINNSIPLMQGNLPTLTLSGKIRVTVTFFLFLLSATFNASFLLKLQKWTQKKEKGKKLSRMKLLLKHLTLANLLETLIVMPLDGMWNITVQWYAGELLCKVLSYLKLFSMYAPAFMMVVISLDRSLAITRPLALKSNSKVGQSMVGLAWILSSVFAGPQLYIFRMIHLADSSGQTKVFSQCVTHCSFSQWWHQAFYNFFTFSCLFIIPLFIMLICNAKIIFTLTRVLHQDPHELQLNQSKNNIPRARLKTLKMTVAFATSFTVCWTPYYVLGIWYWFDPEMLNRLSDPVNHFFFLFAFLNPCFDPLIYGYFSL
Experimental: Test article sample solutions were dissolved in HBSS buffer (with 20 mM HEPES buffer, pH 7.4) to form the 5× working solution. FLIPR® Calcium 4 assay kit from Molecular devices (R8141) was used as required. In brief, CHO-K1 cells expressing GnRHR (CHO-K1/GnRHR/Ga15, Genscript accession NM_000406) were respectively cultured in the 10-cm dishes and maintained at 37° C./5% CO2. CHO-K1 cells expressing GNRHR were respectively seeded in a 384-well black-wall, clear-bottom plate at a density of 15,000 cells per well in 20 μl of growth medium about 18 hours prior to the day of experiment and maintained at 37° C./5% CO2. Then, 20 μl of dye loading solution was added into the wells and the plates were subsequently placed into a 37° C. incubator for 60 minutes, followed by a 15 minutes' incubation at room temperature. At last, 10 μl of compounds or control agonist were added into respective wells of the assay plate during reading in FLIPR. The plate containing 5× compound and control agonist solution was placed in FLIPR. Solutions were added into the cell plate automatically at the 20 seconds and the fluorescence signal was monitored for an additional 100 seconds (21 sec to 120 sec.). Data were recorded by ScreenWorks (version 3.1) as FMD files with FLIPR and stored on the GenScript computer network for off-line analysis. Data acquisition and analyses was performed using ScreenWorks (version 3.1) program and exported to Excel. The average value of the first 20 seconds' reading was calculated as the baseline and the relative fluorescent units (ΔRFU) intensity values were calculated by subtracting the average value of baseline from the maximum fluorescent units (21 s to 120 s).
The % Stimulation was calculated with the following equation: % Stimulation=(ΔRFUCompound−ΔRFUBackground)/(ΔRFUAgonist control−ΔRFUBackground)×100
Dose response curves were fitted with four-parameter-logistic-equation by the software GraphPad Prism 6.
Equation: four parameter logistic equation. Y=Bottom+(Top-Bottom)/(1+10^((Log EC50−X)×Hillslope))
X is the logarithm of concentration. Y is the response.

[1] = Stability in aqueous media (PBS pH 7.4); type: physicochemical; design: unit not given here; settings: phosphate buffer solution (PBS); PBS pH 7.4, 37° C., samples at T=0, 4, 24, 96 h; read-out: Stability grading (t1/2)
Description: LC/MS data was collected for compound identity.

Row | SMILES | activation at 1 µM (GnRHR) | half-life at 0.2 mg/ml [1]
1 | CCNC(=O)[C@@H]1CCCN1C(=O)[C@H](Cc1ccc(O)cc1)NC(=O)[C@H](CC(C)C)NC(=O)[C@@H](Cc1cn(Cc2ccccc2)cn1)NC(=O)[C@H](Cc1c[nH]cn1)NC(=O)[C@H](CO)NC(=O)[C@H](Cc1c[nH]c2ccccc12)NC(=O)[C@H](Cc1c[nH]cn1)NC(=O)[C@@H]1CCC(=O)N1 [Compound 61, pGlu-His-Trp-Ser-His-D-Bhi-Leu-Tyr-Pro-NHEt] ([pGlu]HWSH[dHis(τ-Bn)]LYP-NHEt) | 112% | > 96
2 | CCNC(=O)[C@@H]1CCCN1C(=O)[C@H](Cc1ccc(O)cc1)NC(=O)[C@H](CC(C)C)NC(=O)[C@@H](CC(C)C)NC(=O)[C@H](Cc1c[nH]cn1)NC(=O)[C@H](CO)NC(=O)[C@H](Cc1c[nH]c2ccccc12)NC(=O)[C@H](Cc1c[nH]cn1)NC(=O)[C@@H]1CCC(=O)N1 [Compound 48, pGlu-His-Trp-Ser-His-D-Leu-Leu-Tyr-Pro-NHEt] ([pGlu]HWSH[dL]LYP-NHEt) | 118% | > 96
3 | CC(C)C[C@H](NC(=O)[C@@H](Cc1ccc2ccccc2c1)NC(=O)[C@H](Cc1c[nH]cn1)NC(=O)[C@H](CO)NC(=O)[C@H](Cc1c[nH]c2ccccc12)NC(=O)[C@H](Cc1c[nH]cn1)NC(=O)[C@@H]1CCC(=O)N1)C(=O)N[C@@H](Cc1ccc(O)cc1)C(=O)N1CCC[C@H]1C(=O)NCC(N)=O [Compound 28, pGlu-His-Trp-Ser-His-D-Nal-Leu-Tyr-Pro-Gly-amide] ([pGlu]HWSH[d2Nal]LYPG-NH2) | 95% | > 96
4 | CCNC(=O)[C@@H]1CCCN1C(=O)[C@H](Cc1ccc(O)cc1)NC(=O)[C@H](Cc1c[nH]c2ccccc12)NC(=O)[C@@H](CC(C)C)NC(=O)[C@H](Cc1ccc(O)cc1)NC(=O)[C@H](CO)NC(=O)[C@H](Cc1c[nH]c2ccccc12)NC(=O)[C@H](Cc1c[nH]cn1)NC(=O)[C@@H]1CCC(=O)N1 [Compound 49, pGlu-His-Trp-Ser-Tyr-D-Leu-Trp-Tyr-Pro-NHEt] ([pGlu]HWSY[dL]WYP-NHEt) | 77% | > 96
5 | CC(C)C[C@H](NC(=O)[C@@H](Cc1c[nH]c2ccccc12)NC(=O)[C@H](Cc1c[nH]cn1)NC(=O)[C@H](CO)NC(=O)[C@H](Cc1c[nH]c2ccccc12)NC(=O)[C@H](Cc1c[nH]cn1)NC(=O)[C@@H]1CCC(=O)N1)C(=O)N[C@@H](Cc1ccc(O)cc1)C(=O)N1CCC[C@H]1C(=O)NCC(N)=O [Compound 16, pGlu-His-Trp-Ser-His-D-Trp-Leu-Tyr-Pro-Gly-amide] ([pGlu]HWSH[dW]LYPG-NH2) | 76% | > 96
6 | CCNC(=O)[C@@H]1CCCN1C(=O)[C@H](CCCNC(=N)N)NC(=O)[C@H](Cc1c[nH]c2ccccc12)NC(=O)[C@@H](COC(C)(C)C)NC(=O)[C@H](Cc1ccc(O)cc1)NC(=O)[C@H](CO)NC(=O)[C@H](Cc1c[nH]c2ccccc12)NC(=O)[C@H](Cc1c[nH]cn1)NC(=O)[C@@H]1CCC(=O)N1 [Compound 8, pGlu-His-Trp-Ser-Tyr-D-Ser(tBu)-Trp-Arg-Pro-NHEt] ([pGlu]HWSY[dS](tBu)WRP-NHEt) | 86% | > 96
7 | CCNC(=O)[C@@H]1CCCN1C(=O)[C@H](CCCNC(=N)N)NC(=O)[C@H](CC(C)C)NC(=O)[C@@H](CC(C)C)NC(=O)[C@H](Cc1ccc(O)cc1)NC(=O)[C@H](CO)NC(=O)[C@H](Cc1c[nH]c2ccccc12)NC(=O)[C@H](Cc1c[nH]cn1)NC(=O)[C@@H]1CCC(=O)N1 [Leuprorelin, reference compound] | 107% | –
8 | CC(C)C[C@H](NC(=O)[C@@H](COC(C)(C)C)NC(=O)[C@H](Cc1ccc(O)cc1)NC(=O)[C@H](CO)NC(=O)[C@H](Cc1c[nH]c2ccccc12)NC(=O)[C@H](Cc1cnc[nH]1)NC(=O)[C@@H]1CCC(=O)N1)C(=O)N[C@@H](CCCNC(=N)N)C(=O)N1CCC[C@H]1C(=O)NNC(N)=O [Goserelin] | 99% | –
9 | NC(=O)CNC(=O)[C@@H]1CCCN1C(=O)[C@H](Cc1ccc(O)cc1)NC(=O)[C@H](Cc1c[nH]c2ccccc12)NC(=O)[C@@H](Cc1ccc2ccccc2c1)NC(=O)[C@H](Cc1c[nH]cn1)NC(=O)[C@H](CO)NC(=O)[C@H](Cc1c[nH]c2ccccc12)NC(=O)[C@H](Cc1c[nH]cn1)NC(=O)[C@@H]1CCC(=O)N1 [Compound 33, pGlu-His-Trp-Ser-His-D-Nal-Trp-Tyr-Pro-Gly-amide] ([pGlu]HWSH[d2Nal]WYPG-NH2) | 67% | < 96
10 | CCNC(=O)[C@@H]1CCCN1C(=O)[C@H](Cc1ccc(O)cc1)NC(=O)[C@H](Cc1c[nH]c2ccccc12)NC(=O)[C@@H](COC(C)(C)C)NC(=O)[C@H](Cc1c[nH]cn1)NC(=O)[C@H](CO)NC(=O)[C@H](Cc1c[nH]c2ccccc12)NC(=O)[C@H](Cc1c[nH]cn1)NC(=O)[C@@H]1CCC(=O)N1 [Compound 13, pGlu-His-Trp-Ser-His-D-Ser(tBu)-Trp-Tyr-Pro-NHEt] ([pGlu]HWSH[dS](tBu)WYP-NHEt) | 87% | > 96
11 | CCNC(=O)[C@@H]1CCCN1C(=O)[C@H](CCCNC(=N)N)NC(=O)[C@H](Cc1c[nH]c2ccccc12)NC(=O)[C@@H](Cc1cn(Cc2ccccc2)cn1)NC(=O)[C@H](Cc1c[nH]cn1)NC(=O)[C@H](CO)NC(=O)[C@H](Cc1c[nH]c2ccccc12)NC(=O)[C@H](Cc1c[nH]cn1)NC(=O)[C@@H]1CCC(=O)N1 [Compound 60, pGlu-His-Trp-Ser-His-D-Bhi-Trp-Arg-Pro-NHEt] ([pGlu]HWSH[dHis(τ-Bn)]WRP-NHEt) | 102% | > 96
12 | CC(C)C[C@H](NC(=O)[C@@H](Cc1ccc2ccccc2c1)NC(=O)[C@H](Cc1ccc(O)cc1)NC(=O)[C@H](CO)NC(=O)[C@H](Cc1c[nH]c2ccccc12)NC(=O)[C@H](Cc1c[nH]cn1)NC(=O)[C@@H]1CCC(=O)N1)C(=O)N[C@@H](CCCNC(=N)N)C(=O)N1CCC[C@H]1C(=O)NCC(N)=O [Nafarelin, reference compound] | 100% | –
13 | CCNC(=O)[C@@H]1CCCN1C(=O)[C@H](CCCNC(=N)N)NC(=O)[C@H](CC(C)C)NC(=O)[C@@H](COC(C)(C)C)NC(=O)[C@H](Cc1ccc(O)cc1)NC(=O)[C@H](CO)NC(=O)[C@H](Cc1c[nH]c2ccccc12)NC(=O)[C@H](Cc1cnc[nH]1)NC(=O)[C@@H]1CCC(=O)N1 [Buserelin, reference compound] | 94% | –
14 | CCNC(=O)[C@@H]1CCCN1C(=O)[C@H](Cc1ccc(O)cc1)NC(=O)[C@H](Cc1c[nH]c2ccccc12)NC(=O)[C@@H](COC(C)(C)C)NC(=O)[C@H](Cc1ccc(O)cc1)NC(=O)[C@H](CO)NC(=O)[C@H](Cc1c[nH]c2ccccc12)NC(=O)[C@H](Cc1c[nH]cn1)NC(=O)[C@@H]1CCC(=O)N1 [Compound 12, pGlu-His-Trp-Ser-Tyr-D-Ser(tBu)-Trp-Tyr-Pro-NHEt] ([pGlu]HWSY[dS](tBu)WYP-NHEt) | 80% | > 96
15 | CC(C)C[C@H](NC(=O)CNC(=O)[C@H](Cc1ccc(O)cc1)NC(=O)[C@H](CO)NC(=O)[C@H](Cc1c[nH]c2ccccc12)NC(=O)[C@H](Cc1cnc[nH]1)NC(=O)[C@@H]1CCC(=O)N1)C(=O)N[C@@H](CCCNC(=N)N)C(=O)N1CCC[C@H]1C(=O)NCC(N)=O [Gonadorelin, reference compound] | 102% | –
